Columns and labels:
[1] = biological target: T1, hα7-wt nAChR (Homo sapiens, UniProt P36544); assay: Ca2+ flux imaging (FDSS) (Protocol B), PAM activity with choline as agonist; type: cell-based; settings: for EC50: "<5" = no top plateau at maximal concentration; for Emax: read-out: % efficacy
T1 construct: expressed in transfected cells
Experimental: • Hanks buffered saline solution (HBSS, Invitrogen, Belgium), supplemented with 10 mM HEPES (Invitrogen, Belgium), CaCl2 to a final concentration of 5 mM, 0.1% Bovine serum albumin (Sigma-Aldrich NV, Belgium). b) Calcium-Sensitive Dye—Fluo-4AM • Fluo-4AM (Molecular Probes, USA) was dissolved in DMSO containing 10% Pluronic acid (Molecular Probes, USA) to give a stock solution which was diluted in assay buffer supplemented with 5 mM probenicid (Sigma, Aldrich NV, Belgium) to give a final concentration of 2 μM. c) 384-Well Plates • Black 384 well plate black/clear plates, PDL pre-coated (Corning, Incorporated, USA) d) Calcium Flux Measurement
A Functional drug screening system (FDSS, Hamamatsu) was used to measure intracellular free-calcium flux signals.
Monolayers of hα7-wt nAChR-expressing cells were grown in multi-well plates, in particular black-sided, transparent bottomed 384 well plates coated with poly-D-lysine for 24 hours prior to loading with a fluorescent calcium indicator, in a particular embodiment loading with fluo-4AM for up to 120 minutes.
PAM activity was detected in real time by applying the compounds to be tested to the loaded cells along with a α7 nicotinic receptor agonist during constant monitoring of cellular fluorescence in a FDSS. Compounds giving peak fluorescent responses greater than the response due to agonist alone, were considered to be α7 nAChR PAM's. In a particular embodiment, the α7 nicotinic receptor agonist was choline, a more particular embodiment choline applied at a sub-maximal concentration of 100 μM. In a further setting of the present invention the compounds to be tested were applied prior to the α7 nicotinic receptor agonist, in a particular embodiment up to 10 minutes prior to the agonist.
A control response to choline was calculated on each plate from the difference in peak in fluorescence in wells receiving either choline or assay buffer alone. Compounds of the present invention were tested at a concentration range from 0.01 μM to 30 μM. Compounds were considered to have an interesting activity when they potentiated the choline signal at least with 500% when tested at a concentration of 30 μM (the efficacy of 100 μM choline was defined as 100% in the absence of a PAM). The compounds also have a potentiating effect on the response to choline when measured by whole-cell patch clamp electrophysiology in GH4C1 cells stably over-expressing the human wild-type α7 receptor.

T1 sequence (P36544 23-502): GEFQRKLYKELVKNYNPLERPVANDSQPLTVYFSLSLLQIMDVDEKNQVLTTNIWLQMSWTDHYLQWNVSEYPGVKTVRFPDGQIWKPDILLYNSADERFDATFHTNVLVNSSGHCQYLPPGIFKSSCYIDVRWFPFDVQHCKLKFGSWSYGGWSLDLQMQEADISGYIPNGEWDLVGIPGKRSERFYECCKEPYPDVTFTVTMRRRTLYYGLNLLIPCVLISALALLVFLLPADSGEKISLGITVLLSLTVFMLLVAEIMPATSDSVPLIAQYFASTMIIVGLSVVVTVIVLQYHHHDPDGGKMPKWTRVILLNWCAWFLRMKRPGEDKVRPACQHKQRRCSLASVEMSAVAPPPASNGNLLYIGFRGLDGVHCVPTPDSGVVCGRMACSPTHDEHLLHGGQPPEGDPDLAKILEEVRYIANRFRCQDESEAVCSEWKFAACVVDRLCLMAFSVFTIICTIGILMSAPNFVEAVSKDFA

## CCc1ccc(-c2nc(Nc3ccc(F)c(C(F)(F)F)c3)nn2CCC(=O)N(C)C)cn1 [Compound 128]
other
  melting point: 177.2 °C
[1]
  EC50: 50.1 nM

## CC(C)c1ccc(-c2nc(Nc3ccc(F)c(C(F)(F)F)c3)nn2CCC(=O)N(C)C)cn1 [Compound 129]
other
  melting point: 176.3 °C
[1]
  EC50: 39.8 nM

## CCNc1ccc(-c2nc(Nc3ccc(F)c(C(F)(F)F)c3)nn2CCC(=O)N(C)C)cn1 [Compound 130]
other
  melting point: 201.1 °C
[1]
  EC50: 100 nM

## COCCNc1ccc(-c2nc(Nc3ccc(F)c(C(F)(F)F)c3)nn2CCC(=O)N(C)C)cn1 [Compound 131]
other
  melting point: 167.7 °C
[1]
  EC50: 398 nM

## CN(C)C(=O)CCn1nc(Nc2ccc(F)c(C(F)(F)F)c2)nc1-c1ccc(C2CC2)nc1 [Compound 132]
other
  melting point: 177.3 °C
[1]
  EC50: 15.8 nM

## CN(C)C(=O)CCn1nc(Nc2ccc(F)c(C(F)(F)F)c2)nc1-c1ccc(NC2CC2)nc1 [Compound 133]
other
  melting point: 150.9 °C
[1]
  EC50: 100 nM

## CN(C)C(=O)CCn1nc(Nc2ccc(F)c(C(F)(F)F)c2)nc1-c1ccnc(NC2CC2)c1 [Compound 134]
other
  melting point: 219.8 °C
[1]
  EC50: 20 nM

## CC(C)NC(=O)CCn1nc(Nc2ccc(F)c(C(F)(F)F)c2)nc1-c1ccncc1 [Compound 136]
other
  melting point: 217.7 °C
[1]
  EC50: 3160 nM

## CC(=O)NCCn1nc(Nc2ccc(F)c(C(F)(F)F)c2)nc1-c1ccncc1 [Compound 138]
other
  melting point: 174.3 °C
[1]
  EC50: > 10000 nM

## CCOC(=O)NCCn1nc(Nc2ccc(F)c(C(F)(F)F)c2)nc1-c1ccnc(C)c1 [Compound 139]
other
  melting point: 160.5 °C
[1]
  EC50: 1000 nM

## CCOC(=O)NCCn1nc(Nc2ccc(F)c(C(F)(F)F)c2)nc1-c1ccnc(C2CC2)c1 [Compound 140]
other
  melting point: 147.2 °C
[1]
  EC50: 631 nM

## Cc1nc(CCn2nc(Nc3ccc(F)c(C(F)(F)F)c3)nc2-c2ccncc2)no1 [Compound 141]
other
  melting point: 140.3 °C
[1]
  EC50: 2510 nM

## COc1ccc(Nc2nc(-c3ccncc3)n(CCO)n2)cc1C(F)(F)F [Compound 143]
other
  melting point: 240.4 °C
[1]
  EC50: 2000 nM

## COc1ccc(Nc2nc(-c3ccnc(C)c3)n(CCC(=O)N(C)C)n2)cc1C(F)(F)F [Compound 144]
other
  melting point: 177.2 °C
[1]
  EC50: 200 nM

## COc1ccc(Nc2nc(-c3ccncc3Cl)n(CCC(=O)N(C)C)n2)cc1C(F)(F)F [Compound 145]
other
  melting point: 211.2 °C
[1]
  EC50: 200 nM

## CNC(=O)Cn1nc(Nc2cc(OC)cc(C(F)(F)F)c2)nc1-c1ccnc(NC)c1 [Compound 146]
other
  melting point: 241.1 °C
[1]
  EC50: 1000 nM

## Cc1cc(-c2nc(Nc3cccc(OC(F)(F)F)c3)nn2CC(C)O)ccn1 (stereo not drawn) [Compound 148]
other
  melting point: 130.9 °C
[1]
  EC50: 5010 nM

## CNC(=O)Cn1nc(Nc2cccc(OC(F)(F)F)c2)nc1-c1ccncc1NC [Compound 153]
other
  melting point: 208.6 °C
[1]
  EC50: 1580 nM

## CNC(=O)Cn1nc(Nc2cccc(OC(F)(F)F)c2)nc1-c1ccncc1F [Compound 154]
other
  melting point: 192.2 °C
[1]
  EC50: 3160 nM

## CNC(=O)Cn1nc(Nc2cccc(OC(F)(F)F)c2)nc1-c1ccc(C2CC2)nc1 [Compound 155]
other
  melting point: 217 °C
[1]
  EC50: 316 nM

## CNC(=O)Cn1nc(Nc2cccc(OC(F)(F)F)c2)nc1-c1ccc2c(c1)OCCO2 [Compound 156]
other
  melting point: 185.8 to 191.3 °C
[1]
  EC50: 398 nM

## CNC(=O)Cn1nc(Nc2cccc(OC(F)(F)F)c2)nc1-c1ccc2c(c1)OCCN2C [Compound 157]
other
  melting point: 222.4 °C
[1]
  EC50: 398 nM

## CCNC(=O)Cn1nc(Nc2cccc(OC(F)(F)F)c2)nc1-c1ccc2c(c1)OCCO2 [Compound 158]
other
  melting point: 188.7 °C
[1]
  EC50: 158 nM

## COc1ccc(-c2nc(Nc3cccc(OC(F)(F)F)c3)nn2CC(=O)NC(C)C)cc1OC [Compound 159]
other
  melting point: 182.5 to 186.1 °C
[1]
  EC50: 794 nM
  Emax: 963%

## CC(C)NC(=O)Cn1nc(Nc2cccc(OC(F)(F)F)c2)nc1-c1ccc2c(c1)OCCN2C [Compound 160]
other
  melting point: 153.3 °C
[1]
  EC50: 126 nM

## COc1cccc(-c2nc(Nc3cccc(OC(F)(F)F)c3)nn2CC(=O)NC2CC2)c1 [Compound 162]
other
  melting point: 196.5 to 206.2 °C
[1]
  EC50: 79.4 nM

## COc1ccc(-c2nc(Nc3cccc(OC(F)(F)F)c3)nn2CC(=O)NC2CC2)cc1OC [Compound 163]
other
  melting point: 192.7 to 195.3 °C
[1]
  EC50: 631 nM

## Cc1cc(-c2nc(Nc3cccc(OC(F)(F)F)c3)nn2CC(=O)NC2CC2)ccn1 [Compound 164]
other
  melting point: 190.7 °C
[1]
  EC50: 2000 nM

## CN1CCOc2cc(-c3nc(Nc4cccc(OC(F)(F)F)c4)nn3CC(=O)NC3CC3)ccc21 [Compound 165]
other
  melting point: 168 °C
[1]
  EC50: 158 nM

## CC1(NC(=O)Cn2nc(Nc3cccc(OC(F)(F)F)c3)nc2-c2ccc3c(c2)OCCO3)CC1 [Compound 166]
other
  melting point: 219.3 °C
[1]
  EC50: 200 nM

## CN(C)C(=O)CCn1nc(Nc2cccc(OC(F)(F)F)c2)nc1-c1ccc(N)c(F)c1 [Compound 167]
other
  melting point: 157.1 °C
[1]
  EC50: 398 nM

## CN(C)C(=O)CCn1nc(Nc2cccc(OC(F)(F)F)c2)nc1-c1ccncc1 [Compound 168]
other
  melting point: 178.4 °C
[1]
  EC50: 501 nM

## CC(C)c1ccc(-c2nc(Nc3ccc(F)cc3)nn2CCO)cn1 [Compound 169]
other
  melting point: 135.1 °C
[1]
  EC50: 3160 nM
  Emax: 762%

## CCOc1ccc(-c2nc(Nc3ccc(F)cc3)nn2CCO)cn1 [Compound 170]
other
  melting point: 162.2 °C
[1]
  EC50: > 10000 nM

## OCCn1nc(Nc2ccc(F)cc2)nc1-c1ccc(C2CC2)nc1 [Compound 171]
other
  melting point: 169.8 °C
[1]
  EC50: 2510 nM

## Cc1cc(-c2nc(Nc3cc(F)c(F)c(F)c3)nn2C[C@H](C)O)cc(Cl)n1 [Compound 172]
other
  melting point: 200 °C
[1]
  EC50: 794 nM
  Emax: 812%

## C[C@H](O)Cn1nc(Nc2ccc(F)c(F)c2)nc1-c1ccc(C(=O)N2CCCC2)nc1 [Compound 174]
other
  melting point: 181.7 °C
[1]
  EC50: > 10000 nM
  Emax: 667%

## CNC(=O)Cn1nc(Nc2cc(F)cc(F)c2)nc1-c1ccnc(C2CC2)c1 [Compound 179]
other
  melting point: 222.4 °C
[1]
  EC50: 3160 nM

## CCNC(=O)Cn1nc(Nc2cc(F)c(F)c(F)c2)nc1-c1ccnc(NCC)c1 [Compound 180]
other
  melting point: 259.6 °C
[1]
  EC50: 158 nM

## CCNC(=O)Cn1nc(Nc2cc(F)c(F)c(NCC)c2)nc1-c1ccnc(NCC)c1 [Compound 181]
other
  melting point: 192.8 °C
[1]
  EC50: 794 nM

## Cc1cc(-c2nc(Nc3ccc(F)c(C)c3)nn2CCC(=O)N(C)C)ccn1 [Compound 184]
other
  melting point: 158.8 °C
[1]
  EC50: 794 nM

## Cc1cc(-c2nc(Nc3ccc(F)c(F)c3)nn2CCC(=O)N(C)C)ccn1 [Compound 185]
other
  melting point: 181.3 °C
[1]
  EC50: 1000 nM

## Cc1cc(-c2nc(Nc3ccc(F)c(C#N)c3)nn2CCC(=O)N(C)C)ccn1 [Compound 186]
other
  melting point: 203.9 °C
[1]
  EC50: 398 nM

## COc1cc(Nc2nc(-c3ccnc(C)c3)n(CCC(=O)N(C)C)n2)ccc1F [Compound 187]
other
  melting point: 137.3 °C
[1]
  EC50: 3980 nM

## COc1cc(Nc2nc(-c3ccnc(C)c3)n(CCC(=O)N(C)C)n2)cc(F)c1F [Compound 188]
other
  melting point: 199.8 °C
[1]
  EC50: 794 nM

## CNc1ccc(-c2nc(Nc3cc(F)c(F)cc3F)nn2CCC(=O)N(C)C)cn1 [Compound 189]
other
  melting point: 166.7 °C
[1]
  EC50: 794 nM

## CCNc1ccc(-c2nc(Nc3cc(F)c(F)cc3F)nn2CCC(=O)N(C)C)cn1 [Compound 190]
other
  melting point: 134.2 °C
[1]
  EC50: 398 nM

## CN(C)C(=O)CCn1nc(Nc2ccc(F)c(F)c2)nc1-c1ccc(C(F)(F)F)nc1 [Compound 191]
other
  melting point: 194.4 °C
[1]
  EC50: 1260 nM

## Cc1cc(Nc2nc(-c3ccnc(Cl)c3)n(CCC(=O)N(C)C)n2)ccc1F [Compound 192]
other
  melting point: 149 °C
[1]
  EC50: 631 nM

## CN(C)C(=O)CCn1nc(Nc2cc(F)c(F)cc2F)nc1-c1ccc(NC2CC2)nc1 [Compound 193]
other
  melting point: 158.2 °C
[1]
  EC50: 794 nM

## CN(C)C(=O)CCn1nc(Nc2cccc(F)c2)nc1-c1ccc2c(c1)OCCO2 [Compound 194]
other
  melting point: 114.3 to 116.3 °C
[1]
  EC50: 316 nM

## CCNc1cc(-c2nc(Nc3ccc4c(c3)OC(F)(F)O4)nn2CC(C)O)ccn1 (stereo not drawn) [Compound 199]
other
  melting point: 167.9 °C
[1]
  EC50: 2510 nM

Reference: patent US8143419B2, “Trisubstituted 1,2,4-triazoles” (Janssen Pharmaceutica N. V., priority 2006, dated 2012)
